Where “and” joins values, the source holds several entries; their conditions need not be identical. Identical values can stand only once. Counter-ions that a name gives are not always drawn. One block for each molecule: values may come before it.
Legend:
in vivo = details: both, Göttingen, minipig, plasma, topical or ocular
[1] = Toxicokinetics after daily dermal application
[2] = test system: moderate-to-severe acne vulgaris; details: human, in vivo

Cmax (in vivo): 0.0174 µg/mL
SMILES: CN(C)c1ccc(O)c2c1C[C@H]1C[C@H]3[C@H](N(C)C)C(O)=C(C(N)=O)C(=O)[C@@]3(O)C(O)=C1C2=O [minocycline, minocycline hydrochloride]
systemic exposure, dependence on sex ([1]; Day 91): independent of sex
Tmax ([1]; Group 6, minocycline […] + adapalene […] FCD105 Foam, Day 1, minimum-maximum (median not reported)): (4-8) hr
Tmax ([1]; Group 6, minocycline […] + adapalene […] FCD105 Foam, Day 91, minimum-maximum (median not reported)): (0-8) hr
Tmax ([1]; Göttingen, minipig, plasma, topical or ocular, […], Tmax, Group 4, minocycline […] + adapalene […] FCD105 Foam, Day 1, median): 4 h
Tmax ([1]; Göttingen, minipig, plasma, topical or ocular, […], Tmax, Group 4, minocycline […] + adapalene […] FCD105 Foam, Day 91, median): 2 h
Tmax ([1]; Göttingen, minipig, plasma, topical or ocular, […], Tmax, Group 5, minocycline […] + adapalene […] FCD105 Foam, Day 1, median): 24 h
Tmax ([1]; Göttingen, minipig, plasma, topical or ocular, […], Tmax, Group 5, minocycline […] + adapalene […] FCD105 Foam, Day 91, median): 2 h

Abdominal pain [2]: 0 subjects (%)
Acne, (%) of subjects [2]: (1.8%)
Buming sensation [2]: 0 subjects (%)
Burning and Stinging: Severe, subjects n (%) [2]: 0
Burning sensation [2]: 0 subjects (%)
Constipation [2]: 0 subjects (%)
Dehydration [2]: 0 subjects (%)
Dermatitis contact [2]: 0 subjects (%)
Dryness: Mild, subjects n (%) [2]: 27 (24.1%) and 26 (24.8%) and 17 (17.2%)
Dryness: Severe, subjects n (%) [2]: 0
Erythema: Severe, subjects n (%) [2]: 1 (0.9%) and 2 (1.9%) and 1 (1.0%)
Hyperaesthesia [2]: 0 subjects (%)
Hyperpigmentation: Moderate, subjects n (%) [2]: 4 (3.8%) and 4 (4.0%) and 6 (5.4%)
Hyperpigmentation: Severe, subjects n (%) [2]: 0
Immune system disorders [2]: 0 subjects (%)
Infectious mononucleosis [2]: 0 subjects (%)
Ligament rupture [2]: 0 subjects (%)
Metabolism and nutrition disorders [2]: 0 subjects (%)
Nail discolouration [2]: 0 subjects (%)
Nasopharyngitis [2]: 0 subjects (%)
Nausea [2]: 0 subjects (%)
Neoplasms benign, malignant and unspecified (incl cysts and polyps) [2]: 0 subjects (%)
Oropharyngeal pain [2]: 0 subjects (%)
Otitis media acute [2]: 0 subjects (%)
Pain [2]: 0 subjects (%)
Pain of skin [2]: 0 subjects (%)
Paranasal sinus discomfort [2]: 0 subjects (%)
Pharyngitis streptococcal [2]: 0 subjects (%)
Pyogenic granuloma [2]: 0 subjects (%)
Rash, (%) of subjects [2]: (0.9%)
Rhinorrhoea [2]: 0 subjects (%)
Scaling: Severe, subjects n (%) [2]: 0
Sciatica [2]: 0 subjects (%)
Seasonal allergy [2]: 0 subjects (%)
Toothache [2]: 0 subjects (%)
Vomiting [2]: 0 subjects (%)
Weight, Max [2]: 43.5, 163.3 kg and 43.5, 166.0 kg
Weight, Mean [2]: 77.06 kg and 77.28 kg
Weight, Median [2]: 71.10 kg and 71.50 kg
Weight, Min [2]: 43.5, 163.3 kg and 43.5, 166.0 kg
SMILES: COc1ccc(-c2ccc3cc(C(=O)O)ccc3c2)cc1C12CC3CC(CC(C3)C1)C2 [0.3% adapalene foam]
AE Maximum Severity: Mild [2]: 14 (12.5%)
AE Maximum Severity: Moderate [2]: 4 (3.6%)
AE Maximum Severity: Severe [2]: 2 (1.8%)
Burning and Stinging: None, subjects n (%) [2]: 82 (78.1%) and 97 (92.4%) and 89 (89.9%) and 105 (93.8%)
Diastolic Blood Pressure, Max [2]: 58, 98 mmHg and 56, 93 mmHg and 57, 94 mmHg and 48, 94 mmHg
Diastolic Blood Pressure, Mean [2]: 73.1 mmHg and 72.8 mmHg and 72.1 mmHg
Diastolic Blood Pressure, Median [2]: 72.0 mmHg
Diastolic Blood Pressure, Min [2]: 58, 98 mmHg and 56, 93 mmHg and 57, 94 mmHg and 48, 94 mmHg
Dryness: None, subjects n (%) [2]: 82 (73.2%) and 75 (71.4%) and 77 (73.3%) and 81 (81.8%)
Erythema: Mild, subjects n (%) [2]: 36 (32.1%) and 27 (25.7%) and 36 (34.3%) and 27 (27.3%)
Erythema: None, subjects n (%) [2]: 51 (45.5%) and 55 (52.4%) and 58 (55.2%) and 62 (62.6%)
Heart Rate, Max [2]: 52, 100 beats/min and 52, 99 beats/min and 51, 99 beats/min and 52, 96 beats/min
Heart Rate, Mean [2]: 75.9 beats/min and 76.1 beats/min and 75.7 beats/min and 74.1 beats/min
Heart Rate, Median [2]: 73.0 beats/min and 77.0 beats/min and 76.0 beats/min
Heart Rate, Min [2]: 52, 100 beats/min and 52, 99 beats/min and 51, 99 beats/min and 52, 96 beats/min
Hyperpigmentation: Mild, subjects n (%) [2]: 20 (19.0%) and 19 (19.2%) and 31 (27.7%) and 22 (21.0%)
Hyperpigmentation: None, subjects n (%) [2]: 81 (77.1%) and 76 (76.8%) and 75 (67.0%) and 79 (75.2%)
Itching: None, subjects n (%) [2]: 87 (77.7%) and 79 (75.2%) and 86 (81.9%) and 86 (86.9%)
Number (%) of subjects withdrawn from study due to TEAE [2]: 3 (2.7%) subjects (%)
Number (%) of subjects withdrawn from study due to treatment-related TEAE [2]: 3 (2.7%) subjects (%)
Scaling: Mild, subjects n (%) [2]: 21 (18.8%) and 19 (18.1%) and 17 (16.2%) and 12 (12.1%)
Scaling: Moderate, subjects n (%) [2]: 2 (1.8%) and 3 (2.9%) and 2 (1.9%) and 3 (3.0%)
Scaling: None, subjects n (%) [2]: 89 (79.5%) and 83 (79.0%) and 86 (81.9%) and 84 (84.8%)
Serious AE [2]: 0
Subjects reporting at least one treatment-related TEAE [2]: 10 (8.9%) subjects (%)
Subjects with any TEAE leading to discontinuation of study drug [2]: 3 (2.7%)
Subjects with at least one AE [2]: 20 (17.9%)
Systolic Blood Pressure, Max [2]: 92, 150 mmHg and 96, 150 mmHg and 95, 152 mmHg and 92, 149 mmHg
Systolic Blood Pressure, Mean [2]: 116.7 mmHg
Systolic Blood Pressure, Min [2]: 92, 150 mmHg and 96, 150 mmHg and 95, 152 mmHg and 92, 149 mmHg
TEAE: Abdominal pain [2]: 0
TEAE: Acne [2]: 2 (1.8%)
TEAE: Acute sinusitis [2]: 1 (0.9%)
TEAE: Burning sensation [2]: 0
TEAE: Burns first degree [2]: 1 (0.9%)
TEAE: Constipation [2]: 0
TEAE: Cough [2]: 1 (0.9%)
TEAE: Dehydration [2]: 0
TEAE: Dermatitis contact [2]: 0
TEAE: Diarrhoea [2]: 1 (0.9%)
TEAE: Dry skin [2]: 4 (3.6%)
TEAE: Eczema [2]: 1 (0.9%)
TEAE: Erythema of eyelid [2]: 1 (0.9%)
TEAE: Eye disorders [2]: 3 (2.7%)
TEAE: Eye irritation [2]: 2 (1.8%)
TEAE: Facial bones fracture [2]: 1 (0.9%)
TEAE: Gastrointestinal disorders [2]: 1 (0.9%)
TEAE: General disorders and administration site conditions [2]: 1 (0.9%)
TEAE: Headache [2]: 2 (1.8%)
TEAE: Hordeolum [2]: 1 (0.9%)
TEAE: Hyperaesthesia [2]: 0
TEAE: Immune system disorders [2]: 0
TEAE: Infections and infestations [2]: 8 (7.1%)
TEAE: Infectious mononucleosis [2]: 0
TEAE: Injury, poisoning and procedural complications [2]: 2 (1.8%)
TEAE: Ligament rupture [2]: 0
TEAE: Ligament sprain [2]: 1 (0.9%)
TEAE: Metabolism and nutrition disorders [2]: 0
TEAE: Nail discolouration [2]: 0
TEAE: Nasopharyngitis [2]: 0
TEAE: Nausea [2]: 0
TEAE: Neoplasms benign, malignant and unspecified (incl cysts and polyps) [2]: 0
TEAE: Nervous system disorders [2]: 2 (1.8%)
TEAE: Oropharyngeal pain [2]: 0
TEAE: Otitis media acute [2]: 0
TEAE: Pain [2]: 0
TEAE: Pain of skin [2]: 0
TEAE: Pharyngitis [2]: 1 (0.9%)
TEAE: Pharyngitis streptococcal [2]: 0
TEAE: Pyogenic granuloma [2]: 0
TEAE: Rash [2]: 2 (1.8%)
TEAE: Respiratory, thoracic and mediastinal disorders [2]: 1 (0.9%)
TEAE: Rhinorrhoea [2]: 0
TEAE: Sciatica [2]: 0
TEAE: Seasonal allergy [2]: 0
TEAE: Sinusitis [2]: 1 (0.9%)
TEAE: Skin discolouration [2]: 1 (0.9%)
TEAE: Skin irritation [2]: 1 (0.9%)
TEAE: Staphylococcal infection [2]: 1 (0.9%)
TEAE: Toothache [2]: 0
TEAE: Upper respiratory tract infection [2]: 1 (0.9%)
TEAE: Viral upper respiratory tract infection [2]: 1 (0.9%)
TEAE: Vomiting [2]: 0
Treatment-Related AE [2]: 10 (8.9%)
Withdrawal from Study, Primary Reason: Adverse Event, % of subjects [2]: 3 (2.7%)
Withdrawal from Study, Primary Reason: Adverse Event, number of subjects [2]: 3 (2.7%)
adverse events assessed as mild in severity [2]: 12.5%
dry skin adverse event [2]: 3.6%
overall tolerability (LSTA) scores compared to the other treatment groups [2]: lower
subject discontinuations due to a treatment emergent adverse event [2]: 2.7%
subjects with TEAEs that led to discontinuation of study drug [2]: 3 subjects
subjects with severe (treatment related) TEAE [2]: 1.8%
treatment emergent adverse events, frequency [2]: 8.9%
TEAE: Skin and subcutaneous tissue disorders ([2]; sc): 10 (8.9%)

SMILES: COc1ccc(-c2ccc3cc(C(=O)O)ccc3c2)cc1C12CC3CC(CC(C3)C1)C2 [adapalene]
mean Cmax and AUC0-24hr for adapalene versus dose ([1]; 0.25 to […] adapalene with […] minocycline, Day 91): approximately dose proportional
systemic exposure, dependence on sex ([1]; Day 91): independent of sex
Tmax ([1]; Group 3, adapalene […] alone, daily dermal, Day 91, minimum-maximum (median not reported)): (0-8) hr
Tmax ([1]; Group 4, adapalene […] + minocycline […] FCD105 Foam, Day 1, minimum-maximum (median not reported)): (8-24) hr
Tmax ([1]; Group 4, adapalene […] + minocycline […] FCD105 Foam, Day 91, minimum-maximum (median not reported)): (0-24) hr
Tmax ([1]; Göttingen, minipig, plasma, topical or ocular, […], Tmax, Group 3, adapalene […] alone, daily dermal, Day 1, median): 24 h
Tmax ([1]; Göttingen, minipig, plasma, topical or ocular, […], Tmax, Group 5, adapalene […] + minocycline […] FCD105 Foam, Day 1, median): 24 h
Tmax ([1]; Göttingen, minipig, plasma, topical or ocular, […], Tmax, Group 5, adapalene […] + minocycline […] FCD105 Foam, Day 91, median): 1 h
Tmax ([1]; Göttingen, minipig, plasma, topical or ocular, […], Tmax, Group 6, adapalene […] + minocycline […] FCD105 Foam, Day 1, median): 24 h
Tmax ([1]; Göttingen, minipig, plasma, topical or ocular, […], Tmax, Group 6, adapalene […] + minocycline […] FCD105 Foam, Day 91, median): 1 h

— US20250073251A1, “COMPOSITIONS AND METHODS AND USES THEREOF” (Journey Medical Corporation, priority 2019, published 2025)
